Legend:
Assay in all cases: relative viability (nuclei count vs DMSO), 5 days (fraction); higher = more cells survive
[1] = compound: C1=CC2=NC=CN=C2C=C1/C=C/3\C(=O)NC(=O)S3 + CC(=O)Nc1cccc(-n2c(=O)n(C3CC3)c(=O)c3c(Nc4ccc(I)cc4F)n(C)c(=O)c(C)c32)c1 [Trametinib] (partner 0.02 µM)
In short: (§1)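 Relative viability divides the nuclei count in treated wells by that in vehicle wells. Lung cancer cell lines were seeded in 1536-well plates, dosed by pin tool the next day, and fixed and stained after 5 days in one step with final 0.05% Triton X-100, 1% formaldehyde and 1 ug/ml Hoechst. Dosing was a single drug or a fixed anchor-drug dose plus five library-drug doses (not always all listed) in √10 steps, and values are medians of duplicate plates imaged at 4×.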

[2] = compound: C1=CC2=NC=CN=C2C=C1/C=C/3\C(=O)NC(=O)S3 + CCNC(=O)c1noc(-c2cc(C(C)C)c(O)cc2O)c1-c1ccc(CN2CCOCC2)cc1 [Luminespib] (partner 0.01 µM)
In short: as §1

BGJ398 + Pictilisib = compound: CCN1CCN(c2ccc(Nc3cc(N(C)C(=O)Nc4c(Cl)c(OC)cc(OC)c4Cl)ncn3)cc2)CC1 [BGJ398] + CS(=O)(=O)N1CCN(Cc2cc3nc(-c4cccc5[nH]ncc45)nc(N4CCOCC4)c3s2)CC1 [Pictilisib] (partner 1 µM)
In short: as §1

BGJ398 + Olaparib = compound: CCN1CCN(c2ccc(Nc3cc(N(C)C(=O)Nc4c(Cl)c(OC)cc(OC)c4Cl)ncn3)cc2)CC1 [BGJ398] + O=C(c1cc(Cc2n[nH]c(=O)c3ccccc23)ccc1F)N1CCN(C(=O)C2CC2)CC1 [Olaparib] (partner 8 µM)
In short: as §1

Row | Cell Line | relative viability ([1]; first compound 0.02 µM) | relative viability ([1]; first compound 0.06325 µM) | relative viability ([1]; first compound 0.2 µM) | relative viability ([1]; first compound 0.6325 µM) | relative viability ([1]; first compound 2 µM) | relative viability ([2]; first compound 0.02 µM) | relative viability ([2]; first compound 0.06325 µM) | relative viability ([2]; first compound 0.2 µM) | relative viability ([2]; first compound 0.6325 µM) | relative viability ([2]; first compound 2 µM) | relative viability (BGJ398 + Pictilisib; first compound 0.01 µM) | relative viability (BGJ398 + Pictilisib; first compound 0.03162 µM) | relative viability (BGJ398 + Pictilisib; first compound 0.1 µM) | relative viability (BGJ398 + Pictilisib; first compound 0.3162 µM) | relative viability (BGJ398 + Pictilisib; first compound 1 µM) | relative viability (BGJ398 + Olaparib; first compound 0.01 µM) | relative viability (BGJ398 + Olaparib; first compound 0.03162 µM) | relative viability (BGJ398 + Olaparib; first compound 0.1 µM) | relative viability (BGJ398 + Olaparib; first compound 0.3162 µM) | relative viability (BGJ398 + Olaparib; first compound 1 µM)
1 | NCI-H2228 | 0.51 | 0.556 | 0.562 | 0.398 | 0.338 | 0.157 | 0.132 | 0.152 | 0.156 | 0.137 | 0.342 | 0.56 | 0.531 | 0.484 | 0.365 | 0.606 | 0.765 | 0.512 | 0.594 | 0.441
2 | NCI-H2347 | 0.296 | 0.295 | 0.225 | 0.312 | 0.156 | 0.38 | 0.288 | 0.548 | 0.354 | 0.431 | 0.615 | 0.964 | 0.591 | 0.593 | 0.918 | 0.539 | 0.546 | 0.553 | 0.631 | 0.63
3 | NCI-H2405 | 0.622 | 0.765 | 0.648 | 0.623 | 0.399 | 0.783 | 0.598 | 0.6 | 0.699 | 0.424 | 0.406 | 0.587 | 0.42 | 0.482 | 0.421 | 0.818 | 0.954 | 0.926 | 0.923 | 0.768
4 | NCI-H3122 | 0.246 | 0.261 | 0.237 | 0.191 | 0.235 | 0.0669 | 0.0861 | 0.11 | 0.0884 | 0.106 | 0.609 | 0.652 | 0.625 | 0.678 | 0.582 | 0.628 | 0.611 | 0.661 | 0.596 | 0.654
5 | PC-3 [JPC-3] | 0.627 | 0.772 | 0.734 | 0.736 | 0.646 | 0.704 | 0.767 | 0.732 | 0.687 | 0.813 | 0.716 |  | 0.708 | 0.492 | 0.689 | 1.12 |  | 1.26 |  | 1.15
6 | PC-14 | 0.702 | 1.16 | 0.835 | 0.738 | 0.938 | 0.145 | 0.19 | 0.195 | 0.193 | 0.152 | 0.696 | 0.346 | 0.92 | 0.669 | 0.866 | 0.322 | 0.346 | 0.254 | 0.289 | 0.27
7 | RERF-LC-KJ | 0.815 | 0.878 | 0.88 | 0.738 | 0.62 | 1.2 | 1.52 | 1.23 | 1.14 | 1.28 | 0.598 | 0.663 | 0.515 | 0.583 | 0.615 | 0.961 | 0.959 | 0.969 | 0.917 | 0.92
8 | SK-LU-1 | 0.506 | 0.417 | 0.558 | 0.542 | 0.407 | 0.203 | 0.2 | 0.19 | 0.202 | 0.221 | 0.547 | 0.61 | 0.497 | 0.531 | 0.424 | 0.461 | 0.579 | 0.539 | 0.348 | 0.329
9 | SK-MES-1 | 0.509 | 0.564 | 0.643 | 0.566 | 0.503 | 0.645 | 0.876 | 0.877 | 0.779 | 0.852 | 0.401 | 0.415 | 0.431 | 0.383 | 0.335 | 0.709 | 0.754 | 0.786 | 0.659 | 0.679
10 | SW 1573 | 0.538 | 0.683 | 0.57 | 0.572 | 0.445 | 0.492 | 0.267 | 0.222 | 0.762 | 0.208 | 0.485 | 0.486 | 0.495 | 0.438 | 0.611 | 0.413 | 0.388 | 0.45 | 0.543 | 0.525

Source: the supplement of paper PMC10307832
